Source: patent publication US20090275497A1, “METHOD FOR IDENTIFYING MODULATORS OF THE ACTIVITY OF ION-CHANNELS RECEPTORS” (CENTRE NATIONAL DE LA RECHERCHE SCIENTIFIQUE (CNRS), priority 2004, published 2009)

Tests used:
[1] = system: oocyte not expressing P2X and GABA receptors; assay: Calcium green fluorescence recording, oocytes expressing no receptors; assay type: cell-based, Xenopus; conditions: calcium green probe, FIG. 1
Procedure: (§1) Then, using video-microscopy (Nikon), the fluorescence emitted by oocytes maintained in a standard solution (Ringer solution containing 1.8 mM calcium chloride), perfused at 3 ml/min, has been recorded. […] Variations in fluorescence were analysed using IpLab software.

rat P2X2 receptors = biological target: T1, rat P2X2 receptors (Rattus norvegicus, UniProt P49653); assay: Calcium green fluorescence recording, oocytes expressing P2X2 receptors alone; assay type: cell-based; conditions: oocytes expressing only P2X2 receptors, FIG. 2; for fluorescence (calcium influx) on application of the substance alone: calcium green probe
T1 construct: expressed in transfected cells; host or cells: Xenopus oocytes (nuclear cDNA injection)
T1 sequence (P49653 1-472): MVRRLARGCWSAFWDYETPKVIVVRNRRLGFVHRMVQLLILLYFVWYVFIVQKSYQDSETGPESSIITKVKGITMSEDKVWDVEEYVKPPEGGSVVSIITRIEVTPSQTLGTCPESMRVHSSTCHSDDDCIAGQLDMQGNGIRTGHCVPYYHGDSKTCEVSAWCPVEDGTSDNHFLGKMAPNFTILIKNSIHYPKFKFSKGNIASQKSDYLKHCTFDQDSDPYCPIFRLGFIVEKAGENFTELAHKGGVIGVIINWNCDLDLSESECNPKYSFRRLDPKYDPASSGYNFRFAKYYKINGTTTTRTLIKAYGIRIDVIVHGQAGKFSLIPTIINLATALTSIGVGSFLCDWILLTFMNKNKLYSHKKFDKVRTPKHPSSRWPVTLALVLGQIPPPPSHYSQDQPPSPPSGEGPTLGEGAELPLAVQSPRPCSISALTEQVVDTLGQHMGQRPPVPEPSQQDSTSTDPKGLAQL
Procedure: as §1

[2] = system: P2X2 and GABA-A receptors (rat GABA-A alpha2 beta3); assay type: cell-based; conditions: for fluorescence of the calcium probe on application of the substance alone: 100 μM, oocytes co-expressing P2X2 and GABA-A receptors, resting potential
Procedure: (§2) Variations in fluorescence were analysed using IpLab software.

[3] = biological target: T2, P2X2 and GABA-A receptors (rat GABA-A alpha2 beta3) (Rattus norvegicus, UniProt P23576+P63079); assay type: cell-based
T2 construct: expressed in transfected cells; host or cells: Xenopus oocytes (nuclear cDNA injection)
T2 sequence (P23576 29-451): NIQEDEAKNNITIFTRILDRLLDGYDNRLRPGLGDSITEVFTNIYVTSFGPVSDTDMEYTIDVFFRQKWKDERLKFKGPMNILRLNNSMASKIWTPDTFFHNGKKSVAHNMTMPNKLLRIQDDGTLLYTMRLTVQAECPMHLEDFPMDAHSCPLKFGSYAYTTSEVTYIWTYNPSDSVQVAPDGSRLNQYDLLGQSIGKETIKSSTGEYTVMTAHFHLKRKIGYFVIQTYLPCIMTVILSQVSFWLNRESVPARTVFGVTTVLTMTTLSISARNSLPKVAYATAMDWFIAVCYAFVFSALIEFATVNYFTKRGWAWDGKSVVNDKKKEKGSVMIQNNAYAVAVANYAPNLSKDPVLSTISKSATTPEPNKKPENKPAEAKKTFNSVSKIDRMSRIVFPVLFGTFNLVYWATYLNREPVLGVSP
T2 sequence (P63079 26-473): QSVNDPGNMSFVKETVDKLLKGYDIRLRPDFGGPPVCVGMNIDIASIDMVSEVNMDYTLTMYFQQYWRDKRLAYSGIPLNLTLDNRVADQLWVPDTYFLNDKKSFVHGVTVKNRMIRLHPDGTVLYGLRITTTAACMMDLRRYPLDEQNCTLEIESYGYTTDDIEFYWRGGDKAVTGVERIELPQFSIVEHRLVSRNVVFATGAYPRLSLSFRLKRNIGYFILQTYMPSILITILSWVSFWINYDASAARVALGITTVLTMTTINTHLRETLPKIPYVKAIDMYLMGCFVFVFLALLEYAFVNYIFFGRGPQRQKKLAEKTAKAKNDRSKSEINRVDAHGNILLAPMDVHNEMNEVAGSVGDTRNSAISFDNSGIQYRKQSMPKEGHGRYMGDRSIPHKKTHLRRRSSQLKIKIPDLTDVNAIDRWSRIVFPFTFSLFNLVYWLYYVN
Procedure: as §2

[4] = oocyte co-expressing GABA-A and P2X2 receptors, FIG. 4

| SMILES | modification of the fluorescence on application [1] | fluorescence (calcium influx) on application of the substance alone (rat P2X2 receptors) | fluorescence of the calcium probe on application of the substance alone [2] | effect of GABA on the increase in fluorescence induced by ATP (rat P2X2 receptors; co-application ATP+GABA) | calcium response on co-application ATP+GABA compared with ATP alone ([2]; ATP+GABA 100 μM of each, FIG. 3) | percentage inhibition of the ATP calcium response ([3]; co-application ATP+GABA 100 μM of each, depends on expression ratio of P2X and GABA receptors) | fluorescence intensity when GABA is applied at the peak of the ATP response [3, 4] | fluorescence when application of GABA is stopped during co-application of ATP and GABA [3, 4] |
| --- | --- | --- | --- | --- | --- | --- | --- | --- |
| Nc1ncnc2c1ncn2[C@@H]1O[C@H](COP(=O)(O)OP(=O)(O)OP(=O)(O)O)[C@@H](O)[C@H]1O [ATP] | No modification | transient increase in fluorescence | marked transient increase | – | – | – | – | – |
| NCCCC(=O)O [GABA, gamma-Aminobutyric acid] | No modification | no effect | does not modify fluorescence intensity | not altered | lower calcium response | 20-25% | decrease in fluorescence intensity | increase in fluorescence |
